One test concerns CD8+ T cells. The test is described as follows: In vitro T-cell priming assay with aAPCs (in vitro immunogenicity for MHC class I presented peptides). Format: cell-based, human. The conditions noted are these: in vitro immunogenicity, HLA B*08.
The next test deals with HLA-B*08. The test is described as follows: MHC binding assay (UV-ligand exchange, β2m ELISA). Further details: species or system human.

“299 (MAQFKEISL; listed as Homo sapiens) [compound 299]”: the “Wells positive [%]” value with CD8+ T cells is ““++++” (>=70% = ++++)”. Also, the “Peptide exchange (peptide exchange yield, MHC class I binding score)” value (“Peptide exchange” for short) in the test on HLA-B*08 is ““++++” (>75% = ++++)”.
In the case of “300 (VASPKHCVL; listed as Homo sapiens) [compound 300]”, the “Wells positive [%]” value in the test on CD8+ T cells is reported as ““+” (<20% = +)”. For the same substance, the “Peptide exchange” value in the test with HLA-B*08 is listed as ““+++” (>50 = +++)”.
For “303 (LPFPKFTV; listed as Homo sapiens) [compound 303]”, the “Wells positive [%]” value in the test on CD8+ T cells is ““++” (20%-49% = ++)”. Moreover, in the test with HLA-B*08, the “Peptide exchange” value is ““++++” (>75% = ++++)”.
For the substance “305 (ALKLRVAVL; listed as Homo sapiens) [compound 305]”, in the test with CD8+ T cells, the “Wells positive [%]” value was ““+” (<20% = +)”. Moreover, the “Peptide exchange” value with HLA-B*08 is listed as ““++++” (>75% = ++++)”.
The corresponding values for “306 (ILKVKVGL; listed as Homo sapiens) [compound 306]” are ““+” (<20% = +)” and ““++++” (>75% = ++++)”.
In the case of “307 (ILLPRTVSL; listed as Homo sapiens) [compound 307]”, the “Wells positive [%]” value in the test with CD8+ T cells is given as ““+” (<20% = +)”. In the test on HLA-B*08, the “Peptide exchange” value is given as ““++++” (>75% = ++++)”.
For “308 (MLKQKVEEL; listed as Homo sapiens) [compound 308]”, in the test on CD8+ T cells, the “Wells positive [%]” value is ““+” (<20% = +)”. In the test on HLA-B*08, the “Peptide exchange” value is ““++++” (>75% = ++++)”.
In the case of “311 (EIRIRVVQM; listed as Homo sapiens) [compound 311]”, the “Wells positive [%]” value in the test on CD8+ T cells is on record as ““+” (<20% = +)”. Besides, the “Peptide exchange” value with HLA-B*08 is listed as ““++++” (>75% = ++++)”.
On to “312 (EAMLRNKEL; listed as Homo sapiens) [compound 312]”, for which, in the test on CD8+ T cells, the “Wells positive [%]” value is ““+” (<20% = +)”. In addition, the “Peptide exchange” value with HLA-B*08 is listed as ““++++” (>75% = ++++)”.
As for “313 (ELKKKEYEEL; listed as Homo sapiens) [compound 313]”, the “Wells positive [%]” value in the test with CD8+ T cells is on record as ““+” (<20% = +)”. Further, the “Peptide exchange” value in the test on HLA-B*08 is recorded as ““++++” (>75% = ++++)”.
As to “314 (AIISRLVAL; listed as Homo sapiens) [compound 314]”, the “Wells positive [%]” value with CD8+ T cells was ““++” (20%-49% = ++)”. Besides, the “Peptide exchange” value with HLA-B*08 is recorded as ““++++” (>75% = ++++)”.
Regarding “315 (DIYQRALNL; listed as Homo sapiens) [compound 315]”, the “Wells positive [%]” value in the test on CD8+ T cells is recorded as ““+” (<20% = +)”. In the test on HLA-B*08, the “Peptide exchange” value is listed as ““++++” (>75% = ++++)”.
Consider “316 (VIKEKALTL; listed as Homo sapiens) [compound 316]”, for which, in the test with CD8+ T cells, the “Wells positive [%]” value is ““+” (<20% = +)”. The “Peptide exchange” value in the test on HLA-B*08 is on record as ““+++” (>50 = +++)”.
The corresponding values for “318 (EAAIRSVEL; listed as Homo sapiens) [compound 318]” are ““++” (20%-49% = ++)” and ““++++” (>75% = ++++)”.
